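Abbreviation: GI50, concentration required for 50% inhibition of growth. TGI marks complete inhibition of growth.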
Columns and labels:
Test in all cases: NCI tumour cell line growth inhibition, 384-well format
NCI-H522 lung = system: NCI-H522 lung
A498 renal = system: A498 renal
UACC-257 melanoma = system: UACC-257 melanoma
CCRF-CEM leukemia = system: CCRF-CEM leukemia
HCC-2998 colon = system: HCC-2998 colon
BT-549 breast = system: BT-549 breast
KM12 colon = system: KM12 colon
MCF7 breast = system: MCF7 breast
HL-60(TB) leukemia = system: HL-60(TB) leukemia
SW-620 colon = system: SW-620 colon
U251 glioblastoma = system: U251 glioblastoma
HOP-92 NSCLC = system: HOP-92 NSCLC
OVCAR-4 ovarian = system: OVCAR-4 ovarian
OVCAR-3 ovarian = system: OVCAR-3 ovarian
MDA-MB-468 breast = system: MDA-MB-468 breast
MOLT-4 leukemia = system: MOLT-4 leukemia
SK-OV-3 ovarian = system: SK-OV-3 ovarian
SNB-75 CNS = system: SNB-75 CNS
TK-10 renal = system: TK-10 renal
A549 NSCLC = system: A549 NSCLC
HOP-62 NSCLC = system: HOP-62 NSCLC
COLO 205 colon = system: COLO 205 colon
NCI-H460 NSCLC = system: NCI-H460 NSCLC
NCI-H23 lung = system: NCI-H23 lung
IGROV1 ovarian = system: IGROV1 ovarian
T-47D breast = system: T-47D breast
786-0 renal = system: 786-0 renal
SF-295 CNS = system: SF-295 CNS
HCT-116 colon = system: HCT-116 colon
NCI-H322M lung = system: NCI-H322M lung
OVCAR-8 ovarian = system: OVCAR-8 ovarian
HS 578T breast = system: HS 578T breast
M14 melanoma = system: M14 melanoma
MALME-3M melanoma = system: MALME-3M melanoma
PC-3 prostate = system: PC-3 prostate
SR leukemia = system: SR leukemia
NCI-H226 lung = system: NCI-H226 lung
SF-539 CNS = system: SF-539 CNS
SK-MEL-28 melanoma = system: SK-MEL-28 melanoma
SN12C renal = system: SN12C renal
HT29 colon = system: HT29 colon
UACC-62 melanoma = system: UACC-62 melanoma
RPMI-8226 leukemia = system: RPMI-8226 leukemia
RXF 393 renal = system: RXF 393 renal
MDA-MB-435 melanoma = system: MDA-MB-435 melanoma
DU-145 prostate = system: DU-145 prostate
SNB-19 CNS = system: SNB-19 CNS
MDA-MB-231 breast = system: MDA-MB-231 breast
SF-268 CNS = system: SF-268 CNS
UO-31 renal = system: UO-31 renal

Work on CNC(=O)c1nn(C)c2c1C(C)(C)Cc1cnc(Nc3cccc(N4CCN(C)CC4)c3)nc1-2 yielded a GI50 (NCI-H522 lung) of 153 nM, a TGI (NCI-H522 lung) of 436 nM and a GI50 (A498 renal) of 46.6 nM. For the same compound, the TGI (A498 renal) was 12300 nM, the GI50 (UACC-257 melanoma) was 1160 nM and the TGI (UACC-257 melanoma) was 4300 nM. It also gave a GI50 (CCRF-CEM leukemia) of 252 nM, a TGI (CCRF-CEM leukemia) of 1210 nM and a GI50 (HCC-2998 colon) of 433 nM. For the same compound, the TGI (HCC-2998 colon) was 6560 nM, the GI50 (BT-549 breast) was 276 nM and the TGI (BT-549 breast) was 2040 nM. For the same compound, the GI50 (KM12 colon) was 33.7 nM, the TGI (KM12 colon) was 10600 nM and the GI50 (MCF7 breast) was 345 nM. For the same compound, the TGI (MCF7 breast) was 11400 nM, the GI50 (HL-60(TB) leukemia) was 84.2 nM and the TGI (HL-60(TB) leukemia) was 1630 nM. The GI50 (SW-620 colon) was 391 nM, the TGI (SW-620 colon) was 12600 nM and the GI50 (U251 glioblastoma) was 437 nM. For the same compound, the TGI (U251 glioblastoma) was 12700 nM, the GI50 (HOP-92 NSCLC) was 199 nM and the TGI (HOP-92 NSCLC) was over 100000 nM. It also gave a GI50 (OVCAR-4 ovarian) of 2260 nM, a TGI (OVCAR-4 ovarian) of 10600 nM and a GI50 (OVCAR-3 ovarian) of 167 nM. It also gave a TGI (OVCAR-3 ovarian) of 741 nM, a GI50 (MDA-MB-468 breast) of 463 nM and a TGI (MDA-MB-468 breast) of 1830 nM. The GI50 (MOLT-4 leukemia) was 130 nM, the TGI (MOLT-4 leukemia) was 317 nM and the GI50 (SK-OV-3 ovarian) was 42.2 nM. For the same compound, the TGI (SK-OV-3 ovarian) was 1290 nM, the GI50 (SNB-75 CNS) was 216 nM and the TGI (SNB-75 CNS) was 2170 nM. It also gave a GI50 (TK-10 renal) of 336 nM, a TGI (TK-10 renal) of 10400 nM and a GI50 (A549 NSCLC) of 278 nM. The TGI (A549 NSCLC) was 12800 nM, the GI50 (HOP-62 NSCLC) was 357 nM and the TGI (HOP-62 NSCLC) was 7180 nM. It also gave a GI50 (COLO 205 colon) of 416 nM, a TGI (COLO 205 colon) of 9350 nM and a GI50 (NCI-H460 NSCLC) of 89.3 nM. The TGI (NCI-H460 NSCLC) was 5350 nM, the GI50 (NCI-H23 lung) was 157 nM and the TGI (NCI-H23 lung) was 895 nM. For the same compound, the GI50 (IGROV1 ovarian) was 62.4 nM, the TGI (IGROV1 ovarian) was 616 nM and the GI50 (T-47D breast) was 1610 nM. For the same compound, the TGI (T-47D breast) was 13500 nM, the GI50 (786-0 renal) was 309 nM and the TGI (786-0 renal) was 10900 nM. For the same compound, the GI50 (SF-295 CNS) was 375 nM, the TGI (SF-295 CNS) was 3900 nM and the GI50 (HCT-116 colon) was 123 nM. For the same compound, the TGI (HCT-116 colon) was 11700 nM, the GI50 (NCI-H322M lung) was 523 nM and the TGI (NCI-H322M lung) was 11200 nM. It also gave a GI50 (OVCAR-8 ovarian) of 1450 nM, a TGI (OVCAR-8 ovarian) of 17100 nM and a GI50 (HS 578T breast) of 148 nM. The TGI (HS 578T breast) was 1310 nM, the GI50 (M14 melanoma) was 124 nM and the TGI (M14 melanoma) was 3590 nM. The GI50 (MALME-3M melanoma) was 253 nM, the TGI (MALME-3M melanoma) was 2030 nM and the GI50 (PC-3 prostate) was 185 nM. For the same compound, the TGI (PC-3 prostate) was 11200 nM, the TGI (SR leukemia) was 57.3 nM and the GI50 (NCI-H226 lung) was 251 nM. For the same compound, the TGI (NCI-H226 lung) was 4600 nM, the GI50 (SF-539 CNS) was 405 nM and the TGI (SF-539 CNS) was 3420 nM. It also gave a GI50 (SK-MEL-28 melanoma) of 1080 nM, a TGI (SK-MEL-28 melanoma) of 4010 nM and a GI50 (SN12C renal) of 198 nM. The TGI (SN12C renal) was 1740 nM, the GI50 (HT29 colon) was 886 nM and the TGI (HT29 colon) was 3760 nM. It also gave a GI50 (UACC-62 melanoma) of 206 nM, a TGI (UACC-62 melanoma) of 2260 nM and a GI50 (RPMI-8226 leukemia) of 95.4 nM. The TGI (RPMI-8226 leukemia) was 253 nM, the GI50 (RXF 393 renal) was 122 nM and the TGI (RXF 393 renal) was 2140 nM. The GI50 (MDA-MB-435 melanoma) was 612 nM, the TGI (MDA-MB-435 melanoma) was 11300 nM and the GI50 (DU-145 prostate) was 522 nM. The TGI (DU-145 prostate) was 10500 nM, the GI50 (SNB-19 CNS) was 414 nM and the TGI (SNB-19 CNS) was 24100 nM. The GI50 (MDA-MB-231 breast) was 251 nM, the TGI (MDA-MB-231 breast) was 43600 nM and the GI50 (SF-268 CNS) was 536 nM. It also gave a TGI (SF-268 CNS) of 2270 nM, a GI50 (UO-31 renal) of 235 nM and a TGI (UO-31 renal) of 2190 nM.

From PubChem BioAssay (NCI)
